From patent US20250019367A1, “Methods for Separation of Enantiomers” (Mirati Therapeutics, Inc., priority 2021, published 2025)

Assay: Solid form stability versus water activity
Assay type: physicochemical
Conditions: IPA-water mixtures, water activity αw
Description: In certain such embodiments, the reacting step (c) occurs in an iso-propyl alcohol (IPA, i-PrOH) solution, or isopropyl alcohol and water solution. […] mixtures of IPA-water (e.g. 90/10 v/v) are preferred to maximize recovery and control API form. […] In certain embodiments, the step (c) solution is optionally seeded with M-enantiomer free base Compound 2.

Cn1ncc(-c2ccc3c(=O)[nH]nc(CN)c3c2)c1-c1c(F)c(Cl)cc(OC2CC2)c1C#N [Free Base Type A, (2M)-2-(4-(4-(aminomethyl)-1-oxo-1,2-dihydrophthalazin-6-yl)-1-methyl-1H-pyrazol-5-yl)-4-chloro-6-cyclopropoxy-3-fluorobenzonitrile]
water activity at which the form is the most stable: ≥ 0.13
